Test results: ChEMBL document CHEMBL2385055, “Optimization of a 1,5-dihydrobenzo[b][1,4]diazepine-2,4-dione series of HIV capsid assembly inhibitors 2: structure-activity relationships (SAR) of the C3-phenyl moiety” (Bioorg Med Chem Lett, 2013)

system: not listed separately; experiment: Half life in rat liver microsomes; type: ADME, Microsome; details: not given

| Compound | half-life [h] |
| --- | --- |
| CCN1C(=O)C(c2cc(-c3cn[nH]c3)c(O)cc2O)C(=O)N(c2ccccc2)c2cc(C(F)(F)F)ccc21 (stereo not given) | 0.25 |
| CCN1C(=O)C(c2cc(-c3cnn(C)c3)c(O)cc2O)C(=O)N(c2ccccc2)c2cc(C(F)(F)F)ccc21 (stereo not given) | 0.183 |
| CCCn1cc(-c2cc(C3C(=O)N(CC)c4ccc(C(F)(F)F)cc4N(c4ccccc4)C3=O)cc(OC)c2O)cn1 (stereo not given) | 1.12 |

system: Rattus norvegicus; experiment: Total clearance in iv dosed rat relative to liver blood perfusion rate; type: ADME, organism-based; details: in vivo

| Compound | CL [%] |
| --- | --- |
| CCCn1cc(-c2cc(C3C(=O)N(CC)c4ccc(C(F)(F)F)cc4N(c4ccccc4)C3=O)cc(OC)c2O)cn1 (stereo not given) | 50 |

target: Cytochrome P450 3A4 (Homo sapiens, UniProt P08684); experiment: Inhibition of CYP3A4 (unknown origin); type: ADME; details: not given
Sequence (P08684 whole entry): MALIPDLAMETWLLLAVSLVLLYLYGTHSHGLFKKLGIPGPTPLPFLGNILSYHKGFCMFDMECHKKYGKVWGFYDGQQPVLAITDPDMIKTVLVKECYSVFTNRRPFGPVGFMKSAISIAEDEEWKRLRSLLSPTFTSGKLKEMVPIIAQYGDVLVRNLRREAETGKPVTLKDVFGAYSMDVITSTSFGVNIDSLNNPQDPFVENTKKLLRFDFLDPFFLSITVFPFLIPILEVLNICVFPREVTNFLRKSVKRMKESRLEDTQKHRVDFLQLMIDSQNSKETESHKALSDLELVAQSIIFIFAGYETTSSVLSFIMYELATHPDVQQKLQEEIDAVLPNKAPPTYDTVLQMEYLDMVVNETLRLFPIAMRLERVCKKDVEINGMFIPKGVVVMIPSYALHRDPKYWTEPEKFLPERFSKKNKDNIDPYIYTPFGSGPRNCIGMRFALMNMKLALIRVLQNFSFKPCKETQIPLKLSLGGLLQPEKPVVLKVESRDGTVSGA

| Compound | INH [µM] |
| --- | --- |
| CCN1C(=O)C(c2cc(-c3cn[nH]c3)c(O)cc2O)C(=O)N(c2ccccc2)c2cc(C(F)(F)F)ccc21 (stereo not given) | 4.8 |
| CCN1C(=O)C(c2cc(-c3cnn(C)c3)c(O)cc2O)C(=O)N(c2ccccc2)c2cc(C(F)(F)F)ccc21 (stereo not given) | 4.5 |
| CCN1C(=O)C(c2cc(-c3cnn(C)c3)ccc2O)C(=O)N(c2ccccc2)c2cc(C(F)(F)F)ccc21 (stereo not given) | 1.7 |
| CCN1C(=O)C(c2ccc(O)c(-c3cnn(C)c3)c2)C(=O)N(c2ccccc2)c2cc(C(F)(F)F)ccc21 (stereo not given) | 5.7 |
| CCCn1cc(-c2cc(C3C(=O)N(CC)c4ccc(C(F)(F)F)cc4N(c4ccccc4)C3=O)cc(OC)c2O)cn1 (stereo not given) | 3.6 |

system: not listed separately; experiment: Volume of distribution at steady state in iv dosed rat; type: ADME, organism-based; details: in vivo, read-out: Vdss

| Compound | Vd [L/kg] |
| --- | --- |
| CCCn1cc(-c2cc(C3C(=O)N(CC)c4ccc(C(F)(F)F)cc4N(c4ccccc4)C3=O)cc(OC)c2O)cn1 (stereo not given) | 15 |

system: not listed separately; experiment: Half life in iv dosed rat; type: ADME, organism-based; details: in vivo

| Compound | half-life [h] |
| --- | --- |
| CCCn1cc(-c2cc(C3C(=O)N(CC)c4ccc(C(F)(F)F)cc4N(c4ccccc4)C3=O)cc(OC)c2O)cn1 (stereo not given) | 4.8 |

system: not listed separately; experiment: Half life in human liver microsomes; type: ADME, Microsome; details: not given

| Compound | half-life [h] |
| --- | --- |
| CCN1C(=O)C(c2cc(-c3cn[nH]c3)c(O)cc2O)C(=O)N(c2ccccc2)c2cc(C(F)(F)F)ccc21 (stereo not given) | > 5 |
| CCN1C(=O)C(c2cc(-c3cnn(C)c3)c(O)cc2O)C(=O)N(c2ccccc2)c2cc(C(F)(F)F)ccc21 (stereo not given) | 1.85 |
| CCN1C(=O)C(c2cc(-c3cnn(C)c3)ccc2O)C(=O)N(c2ccccc2)c2cc(C(F)(F)F)ccc21 (stereo not given) | 2.5 |
| CCN1C(=O)C(c2ccc(O)c(-c3cnn(C)c3)c2)C(=O)N(c2ccccc2)c2cc(C(F)(F)F)ccc21 (stereo not given) | 2 |
| CCCn1cc(-c2cc(C3C(=O)N(CC)c4ccc(C(F)(F)F)cc4N(c4ccccc4)C3=O)cc(OC)c2O)cn1 (stereo not given) | 1.43 |

system: not listed separately; experiment: Induction of HIV1 NL4-3 nucleocapsid protein disassembly expressed in expressed in Escherichia coli BL21 (DE3) using 5'-end fluorescein labeled (TG)25 oligonucleotide after 2 hrs by fluorescence assay; set-up: species or system Human immunodeficiency virus 1; details: not given

| Compound | IC50 [µM] |
| --- | --- |
| CCN1C(=O)C(c2ccc(O)c(OC)c2)C(=O)N(c2ccccc2)c2cc(C(F)(F)F)ccc21 (stereo not given) | 0.11 |
| CCN1C(=O)C(c2ccc(-c3cccnc3)cc2)C(=O)N(c2ccccc2)c2cc(C(F)(F)F)ccc21 (stereo not given) | 0.32 |
| CCN1C(=O)C2(CCc3cc(O)c(-c4cnn(C)c4)cc32)C(=O)N(c2ccccc2)c2cc(C(F)(F)F)ccc21 (stereo not given) | 0.13 |
| CCN1C(=O)C(c2cc(-c3cn[nH]c3)c(O)cc2O)C(=O)N(c2ccccc2)c2cc(C(F)(F)F)ccc21 (stereo not given) | 0.05 |
| CCN1C(=O)C(c2ccccc2)C(=O)N(c2ccccc2)c2cc(C(F)(F)F)ccc21 (stereo not given) | 0.48 |
| CCN1C(=O)C(c2ccc(-c3cnco3)cc2)C(=O)N(c2ccccc2)c2cc(C(F)(F)F)ccc21 (stereo not given) | 0.47 |
| CCN1C(=O)C(c2cccc(-c3ccnn3C)c2)C(=O)N(c2ccccc2)c2cc(C(F)(F)F)ccc21 (stereo not given) | 0.3 |
| CCN1C(=O)C(c2cccc(-c3cnn(C)c3)c2)C(=O)N(c2ccccc2)c2cc(C(F)(F)F)ccc21 (stereo not given) | 0.13 |
| CCN1C(=O)C(c2cc(-c3cnn(C)c3)c(O)cc2O)C(=O)N(c2ccccc2)c2cc(C(F)(F)F)ccc21 (stereo not given) | 0.1 |
| CCN1C(=O)C(c2cc(-c3cnn(C)c3)ccc2O)C(=O)N(c2ccccc2)c2cc(C(F)(F)F)ccc21 (stereo not given) | 0.17 |
| CCN1C(=O)C(c2ccc(O)c(-c3cnn(C)c3)c2)C(=O)N(c2ccccc2)c2cc(C(F)(F)F)ccc21 (stereo not given) | 0.12 |
| CCCn1cc(-c2cc(C3C(=O)N(CC)c4ccc(C(F)(F)F)cc4N(c4ccccc4)C3=O)cc(OC)c2O)cn1 (stereo not given) | 0.16 |

system: not listed separately; experiment: Cytotoxicity against human C8166 cells; type: cell-based; details: not given

| Compound | CC50 [µM] |
| --- | --- |
| CCN1C(=O)C(c2ccc(O)c(OC)c2)C(=O)N(c2ccccc2)c2cc(C(F)(F)F)ccc21 (stereo not given) | 42 |
| CCN1C(=O)C(c2ccc(-c3cccnc3)cc2)C(=O)N(c2ccccc2)c2cc(C(F)(F)F)ccc21 (stereo not given) | 7 |
| CCN1C(=O)C(c2ccc(-c3cnco3)cc2)C(=O)N(c2ccccc2)c2cc(C(F)(F)F)ccc21 (stereo not given) | > 7 |
| CCN1C(=O)C(c2cccc(-c3ccnn3C)c2)C(=O)N(c2ccccc2)c2cc(C(F)(F)F)ccc21 (stereo not given) | 30 |
| CCN1C(=O)C(c2cccc(-c3cnn(C)c3)c2)C(=O)N(c2ccccc2)c2cc(C(F)(F)F)ccc21 (stereo not given) | 20 |

target: Cytochrome P450 2D6 (Homo sapiens, UniProt P10635); experiment: Inhibition of CYP2D6 (unknown origin); type: ADME; details: not given
Sequence (P10635 whole entry): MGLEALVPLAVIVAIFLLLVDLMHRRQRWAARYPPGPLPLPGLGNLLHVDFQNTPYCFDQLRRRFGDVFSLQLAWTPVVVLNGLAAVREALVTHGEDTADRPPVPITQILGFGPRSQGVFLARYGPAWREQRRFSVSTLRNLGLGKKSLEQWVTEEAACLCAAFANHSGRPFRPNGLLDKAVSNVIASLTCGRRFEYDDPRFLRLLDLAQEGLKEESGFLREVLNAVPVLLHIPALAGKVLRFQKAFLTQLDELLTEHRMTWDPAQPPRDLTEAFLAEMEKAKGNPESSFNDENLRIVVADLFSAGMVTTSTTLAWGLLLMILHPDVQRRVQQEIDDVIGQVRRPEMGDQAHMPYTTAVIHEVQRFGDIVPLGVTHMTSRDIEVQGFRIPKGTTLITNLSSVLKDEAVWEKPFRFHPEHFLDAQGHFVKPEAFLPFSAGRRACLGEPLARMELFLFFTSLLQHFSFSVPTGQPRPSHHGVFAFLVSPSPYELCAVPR

| Compound | INH [µM] |
| --- | --- |
| CCN1C(=O)C(c2cc(-c3cn[nH]c3)c(O)cc2O)C(=O)N(c2ccccc2)c2cc(C(F)(F)F)ccc21 (stereo not given) | 8.9 |
| CCN1C(=O)C(c2cc(-c3cnn(C)c3)c(O)cc2O)C(=O)N(c2ccccc2)c2cc(C(F)(F)F)ccc21 (stereo not given) | 13 |
| CCN1C(=O)C(c2cc(-c3cnn(C)c3)ccc2O)C(=O)N(c2ccccc2)c2cc(C(F)(F)F)ccc21 (stereo not given) | > 30 |
| CCN1C(=O)C(c2ccc(O)c(-c3cnn(C)c3)c2)C(=O)N(c2ccccc2)c2cc(C(F)(F)F)ccc21 (stereo not given) | > 30 |
| CCCn1cc(-c2cc(C3C(=O)N(CC)c4ccc(C(F)(F)F)cc4N(c4ccccc4)C3=O)cc(OC)c2O)cn1 (stereo not given) | > 30 |

system: Human immunodeficiency virus 1; experiment: Antiviral activity against HIV1 infected in human C8166 cells assessed as inhibition of viral replication after 2 days by luciferase assay; type: functional, organism-based; details: Human immunodeficiency virus 1, C8166, 48 h

| Compound | EC50 [µM] |
| --- | --- |
| CCN1C(=O)C(c2ccc(O)c(OC)c2)C(=O)N(c2ccccc2)c2cc(C(F)(F)F)ccc21 (stereo not given) | 0.53 |
| CCN1C(=O)C(c2ccc(-c3cccnc3)cc2)C(=O)N(c2ccccc2)c2cc(C(F)(F)F)ccc21 (stereo not given) | 0.4 |
| CCN1C(=O)C2(CCc3cc(O)c(-c4cnn(C)c4)cc32)C(=O)N(c2ccccc2)c2cc(C(F)(F)F)ccc21 (stereo not given) | 0.3 |
| CCN1C(=O)C(c2cc(-c3cn[nH]c3)c(O)cc2O)C(=O)N(c2ccccc2)c2cc(C(F)(F)F)ccc21 (stereo not given) | 0.13 |
| CCN1C(=O)C(c2ccc(-c3cnco3)cc2)C(=O)N(c2ccccc2)c2cc(C(F)(F)F)ccc21 (stereo not given) | 1.1 |
| CCN1C(=O)C(c2cccc(-c3ccnn3C)c2)C(=O)N(c2ccccc2)c2cc(C(F)(F)F)ccc21 (stereo not given) | 0.99 |
| CCN1C(=O)C(c2cccc(-c3cnn(C)c3)c2)C(=O)N(c2ccccc2)c2cc(C(F)(F)F)ccc21 (stereo not given) | 0.71 |
| CCN1C(=O)C(c2cc(-c3cnn(C)c3)c(O)cc2O)C(=O)N(c2ccccc2)c2cc(C(F)(F)F)ccc21 (stereo not given) | 0.14 |
| CCN1C(=O)C(c2cc(-c3cnn(C)c3)ccc2O)C(=O)N(c2ccccc2)c2cc(C(F)(F)F)ccc21 (stereo not given) | 0.18 |
| CCN1C(=O)C(c2ccc(O)c(-c3cnn(C)c3)c2)C(=O)N(c2ccccc2)c2cc(C(F)(F)F)ccc21 (stereo not given) | 0.19 |
| CCCn1cc(-c2cc(C3C(=O)N(CC)c4ccc(C(F)(F)F)cc4N(c4ccccc4)C3=O)cc(OC)c2O)cn1 (stereo not given) | 0.07 |

system: not listed separately; experiment: Permeability across human Caco2 cells; type: ADME, cell-based; details: Caco-2, read-out: permeability

| Compound | Papp [×10⁻⁶ cm/s] |
| --- | --- |
| CCN1C(=O)C(c2cc(-c3cn[nH]c3)c(O)cc2O)C(=O)N(c2ccccc2)c2cc(C(F)(F)F)ccc21 (stereo not given) | < 0.1 |
| CCN1C(=O)C(c2cc(-c3cnn(C)c3)c(O)cc2O)C(=O)N(c2ccccc2)c2cc(C(F)(F)F)ccc21 (stereo not given) | 7.7 |
| CCN1C(=O)C(c2cc(-c3cnn(C)c3)ccc2O)C(=O)N(c2ccccc2)c2cc(C(F)(F)F)ccc21 (stereo not given) | 4.3 |
| CCN1C(=O)C(c2ccc(O)c(-c3cnn(C)c3)c2)C(=O)N(c2ccccc2)c2cc(C(F)(F)F)ccc21 (stereo not given) | < 0.1 |
| CCCn1cc(-c2cc(C3C(=O)N(CC)c4ccc(C(F)(F)F)cc4N(c4ccccc4)C3=O)cc(OC)c2O)cn1 (stereo not given) | 9.9 |

system: not listed separately; experiment: Inhibition of HIV1 NL4-3 nucleocapsid protein assembly expressed in expressed in Escherichia coli BL21 (DE3) using 5'-end fluorescein labeled (TG)25 oligonucleotide after 2 hrs by fluorescence assay; set-up: species or system Human immunodeficiency virus 1; details: not given

| Compound | IC50 [µM] |
| --- | --- |
| CCN1C(=O)C(c2ccc(O)c(OC)c2)C(=O)N(c2ccccc2)c2cc(C(F)(F)F)ccc21 (stereo not given) | 0.59 |
| CCN1C(=O)C(c2ccc(-c3cccnc3)cc2)C(=O)N(c2ccccc2)c2cc(C(F)(F)F)ccc21 (stereo not given) | 0.4 |
| CCN1C(=O)C(c2ccccc2)C(=O)N(c2ccccc2)c2cc(C(F)(F)F)ccc21 (stereo not given) | 0.73 |
| CCN1C(=O)C(c2ccc(-c3cnco3)cc2)C(=O)N(c2ccccc2)c2cc(C(F)(F)F)ccc21 (stereo not given) | 0.76 |
| CCN1C(=O)C(c2cccc(-c3ccnn3C)c2)C(=O)N(c2ccccc2)c2cc(C(F)(F)F)ccc21 (stereo not given) | 0.67 |
| CCN1C(=O)C(c2cccc(-c3cnn(C)c3)c2)C(=O)N(c2ccccc2)c2cc(C(F)(F)F)ccc21 (stereo not given) | 0.63 |
